According to PubChem BioAssay (NCI):
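Each compound was tested at five concentrations against cells in 96-well plates for 48 hours. Here, GI50 denotes the concentration required for 50% inhibition of growth. Definition used: TGI = concentration required for complete inhibition of growth.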

Key:
Assay in all cases: NCI tumour cell line growth inhibition, 48 h
SW-620 colon = tested on: SW-620 colon
HOP-62 NSCLC = tested on: HOP-62 NSCLC
MDA-MB-468 breast = tested on: MDA-MB-468 breast
MALME-3M melanoma = tested on: MALME-3M melanoma
CCRF-CEM leukemia = tested on: CCRF-CEM leukemia
K-562 leukemia = tested on: K-562 leukemia
HT29 colon = tested on: HT29 colon
MDA-MB-435 = tested on: MDA-MB-435
SR leukemia = tested on: SR leukemia
HCT-15 colon = tested on: HCT-15 colon
KM12 colon = tested on: KM12 colon
HCT-116 colon = tested on: HCT-116 colon
HOP-92 NSCLC = tested on: HOP-92 NSCLC
NCI-H23 lung = tested on: NCI-H23 lung
HL-60(TB) leukemia = tested on: HL-60(TB) leukemia
SK-MEL-28 melanoma = tested on: SK-MEL-28 melanoma
T-47D breast = tested on: T-47D breast
SF-268 CNS = tested on: SF-268 CNS
NCI/ADR-RES ovarian = tested on: NCI/ADR-RES ovarian
A549 NSCLC = tested on: A549 NSCLC
SK-OV-3 ovarian = tested on: SK-OV-3 ovarian
SK-MEL-2 melanoma = tested on: SK-MEL-2 melanoma
PC-3 prostate = tested on: PC-3 prostate
RPMI-8226 leukemia = tested on: RPMI-8226 leukemia
SN12C renal = tested on: SN12C renal
SNB-75 CNS = tested on: SNB-75 CNS
BT-549 breast = tested on: BT-549 breast
M14 melanoma = tested on: M14 melanoma
CAKI-1 renal = tested on: CAKI-1 renal
OVCAR-5 ovarian = tested on: OVCAR-5 ovarian
A498 renal = tested on: A498 renal
COLO 205 colon = tested on: COLO 205 colon
OVCAR-4 ovarian = tested on: OVCAR-4 ovarian
U251 CNS = tested on: U251 CNS
SNB-19 CNS = tested on: SNB-19 CNS
MOLT-4 leukemia = tested on: MOLT-4 leukemia
UACC-62 melanoma = tested on: UACC-62 melanoma
UO-31 renal = tested on: UO-31 renal
LOX IMVI melanoma = tested on: LOX IMVI melanoma
HCC-2998 colon = tested on: HCC-2998 colon
SK-MEL-5 melanoma = tested on: SK-MEL-5 melanoma
SF-539 CNS = tested on: SF-539 CNS
EKVX NSCLC = tested on: EKVX NSCLC
NCI-H522 lung = tested on: NCI-H522 lung
DU-145 prostate = tested on: DU-145 prostate
ACHN renal = tested on: ACHN renal
OVCAR-8 ovarian = tested on: OVCAR-8 ovarian
786-0 renal = tested on: 786-0 renal
RXF 393 renal = tested on: RXF 393 renal
MDA-MB-231 breast = tested on: MDA-MB-231 breast
NCI-H460 lung = tested on: NCI-H460 lung
HS 578T breast = tested on: HS 578T breast
UACC-257 melanoma = tested on: UACC-257 melanoma
OVCAR-3 ovarian = tested on: OVCAR-3 ovarian
MCF7 breast = tested on: MCF7 breast
TK-10 renal = tested on: TK-10 renal
SF-295 CNS = tested on: SF-295 CNS

**Q.** How did the GI50 (SW-620 colon) turn out when Cc1nc(Nc2ncc(C(=O)Nc3c(C)cccc3Cl)s2)cc(N2CCN(CCCNC(=O)COc3ccc(C4CCC(=O)NC4=O)cc3)CC2)n1 (stereo not drawn) was run?
**A.** > 100 µM

**Q.** And the TGI (SW-620 colon)?
**A.** > 100 µM

**Q.** And the GI50 (HOP-62 NSCLC)?
**A.** 0.336 µM

**Q.** And the TGI (HOP-62 NSCLC)?
**A.** > 100 µM

**Q.** And the GI50 (MDA-MB-468 breast)?
**A.** 0.172 µM

**Q.** And the TGI (MDA-MB-468 breast)?
**A.** 5.16 µM

**Q.** And the GI50 (MALME-3M melanoma)?
**A.** > 100 µM

**Q.** And the TGI (MALME-3M melanoma)?
**A.** > 100 µM

**Q.** What about the GI50 (CCRF-CEM leukemia) of the same compound?
**A.** 34 µM

**Q.** What about the TGI (CCRF-CEM leukemia) of the same compound?
**A.** > 100 µM

**Q.** And the GI50 (K-562 leukemia)?
**A.** < 0.01 µM

**Q.** What about the TGI (K-562 leukemia) of the same compound?
**A.** > 100 µM

**Q.** What about the GI50 (HT29 colon) of the same compound?
**A.** 0.181 µM

**Q.** What about the TGI (HT29 colon) of the same compound?
**A.** 2.54 µM

**Q.** And the GI50 (MDA-MB-435)?
**A.** > 100 µM

**Q.** What about the TGI (MDA-MB-435) of the same compound?
**A.** > 100 µM

**Q.** What about the GI50 (SR leukemia) of the same compound?
**A.** 2.8 µM

**Q.** And the TGI (SR leukemia)?
**A.** > 100 µM

**Q.** And the GI50 (HCT-15 colon)?
**A.** 9.01 µM

**Q.** What about the TGI (HCT-15 colon) of the same compound?
**A.** > 100 µM

**Q.** What about the GI50 (KM12 colon) of the same compound?
**A.** > 91.9 µM

**Q.** And the TGI (KM12 colon)?
**A.** > 100 µM

**Q.** And the GI50 (HCT-116 colon)?
**A.** 2.5 µM

**Q.** And the TGI (HCT-116 colon)?
**A.** > 92.5 µM

**Q.** What about the GI50 (HOP-92 NSCLC) of the same compound?
**A.** < 0.01 µM

**Q.** And the TGI (HOP-92 NSCLC)?
**A.** 0.0498 µM

**Q.** And the GI50 (NCI-H23 lung)?
**A.** 16.9 µM

**Q.** What about the TGI (NCI-H23 lung) of the same compound?
**A.** > 100 µM

**Q.** What about the GI50 (HL-60(TB) leukemia) of the same compound?
**A.** > 79.5 µM

**Q.** And the TGI (HL-60(TB) leukemia)?
**A.** > 100 µM

**Q.** And the GI50 (SK-MEL-28 melanoma)?
**A.** > 100 µM

**Q.** What about the TGI (SK-MEL-28 melanoma) of the same compound?
**A.** > 100 µM

**Q.** And the GI50 (T-47D breast)?
**A.** 0.454 µM

**Q.** What about the TGI (T-47D breast) of the same compound?
**A.** > 100 µM

**Q.** What about the GI50 (SF-268 CNS) of the same compound?
**A.** 0.11 µM

**Q.** And the TGI (SF-268 CNS)?
**A.** > 100 µM

**Q.** What about the GI50 (NCI/ADR-RES ovarian) of the same compound?
**A.** > 100 µM

**Q.** What about the TGI (NCI/ADR-RES ovarian) of the same compound?
**A.** > 100 µM

**Q.** What about the GI50 (A549 NSCLC) of the same compound?
**A.** 2.23 µM

**Q.** And the TGI (A549 NSCLC)?
**A.** > 48.1 µM

**Q.** What about the GI50 (SK-OV-3 ovarian) of the same compound?
**A.** 0.505 µM

**Q.** And the TGI (SK-OV-3 ovarian)?
**A.** 6.95 µM

**Q.** And the GI50 (SK-MEL-2 melanoma)?
**A.** > 100 µM

**Q.** And the TGI (SK-MEL-2 melanoma)?
**A.** > 100 µM

**Q.** And the GI50 (PC-3 prostate)?
**A.** 2.43 µM

**Q.** And the TGI (PC-3 prostate)?
**A.** > 100 µM

**Q.** What about the GI50 (RPMI-8226 leukemia) of the same compound?
**A.** > 100 µM

**Q.** And the TGI (RPMI-8226 leukemia)?
**A.** > 100 µM

**Q.** And the GI50 (SN12C renal)?
**A.** 0.0309 µM

**Q.** What about the TGI (SN12C renal) of the same compound?
**A.** > 100 µM

**Q.** What about the GI50 (SNB-75 CNS) of the same compound?
**A.** < 0.01 µM

**Q.** And the GI50 (BT-549 breast)?
**A.** > 100 µM

**Q.** What about the TGI (BT-549 breast) of the same compound?
**A.** > 100 µM

**Q.** What about the GI50 (M14 melanoma) of the same compound?
**A.** > 59.2 µM

**Q.** What about the TGI (M14 melanoma) of the same compound?
**A.** > 100 µM

**Q.** What about the GI50 (CAKI-1 renal) of the same compound?
**A.** 0.206 µM

**Q.** And the TGI (CAKI-1 renal)?
**A.** 1.83 µM

**Q.** What about the GI50 (OVCAR-5 ovarian) of the same compound?
**A.** 0.191 µM

**Q.** What about the TGI (OVCAR-5 ovarian) of the same compound?
**A.** > 100 µM

**Q.** What about the GI50 (A498 renal) of the same compound?
**A.** 2.93 µM

**Q.** And the TGI (A498 renal)?
**A.** > 100 µM

**Q.** What about the GI50 (COLO 205 colon) of the same compound?
**A.** 0.0695 µM

**Q.** And the TGI (COLO 205 colon)?
**A.** > 100 µM

**Q.** What about the GI50 (OVCAR-4 ovarian) of the same compound?
**A.** > 100 µM

**Q.** And the TGI (OVCAR-4 ovarian)?
**A.** > 100 µM

**Q.** What about the GI50 (U251 CNS) of the same compound?
**A.** > 100 µM

**Q.** And the TGI (U251 CNS)?
**A.** > 100 µM

**Q.** And the GI50 (SNB-19 CNS)?
**A.** > 100 µM

**Q.** And the TGI (SNB-19 CNS)?
**A.** > 100 µM

**Q.** And the GI50 (MOLT-4 leukemia)?
**A.** 7.64 µM

**Q.** And the TGI (MOLT-4 leukemia)?
**A.** > 100 µM

**Q.** And the GI50 (UACC-62 melanoma)?
**A.** > 100 µM

**Q.** And the TGI (UACC-62 melanoma)?
**A.** > 100 µM

**Q.** And the GI50 (UO-31 renal)?
**A.** 1.47 µM

**Q.** What about the TGI (UO-31 renal) of the same compound?
**A.** > 100 µM

**Q.** And the GI50 (LOX IMVI melanoma)?
**A.** 0.0182 µM

**Q.** And the TGI (LOX IMVI melanoma)?
**A.** 0.218 µM

**Q.** What about the GI50 (HCC-2998 colon) of the same compound?
**A.** > 100 µM

**Q.** And the TGI (HCC-2998 colon)?
**A.** > 100 µM

**Q.** What about the GI50 (SK-MEL-5 melanoma) of the same compound?
**A.** 66.7 µM

**Q.** What about the TGI (SK-MEL-5 melanoma) of the same compound?
**A.** > 100 µM

**Q.** What about the GI50 (SF-539 CNS) of the same compound?
**A.** 0.0507 µM

**Q.** And the TGI (SF-539 CNS)?
**A.** 4.7 µM

**Q.** What about the GI50 (EKVX NSCLC) of the same compound?
**A.** 1.85 µM

**Q.** And the TGI (EKVX NSCLC)?
**A.** > 100 µM

**Q.** What about the GI50 (NCI-H522 lung) of the same compound?
**A.** 1.3 µM

**Q.** And the TGI (NCI-H522 lung)?
**A.** > 100 µM

**Q.** And the GI50 (DU-145 prostate)?
**A.** 2.3 µM

**Q.** What about the TGI (DU-145 prostate) of the same compound?
**A.** > 100 µM

**Q.** What about the GI50 (ACHN renal) of the same compound?
**A.** 0.757 µM

**Q.** And the TGI (ACHN renal)?
**A.** > 100 µM

**Q.** And the GI50 (OVCAR-8 ovarian)?
**A.** 0.934 µM

**Q.** What about the TGI (OVCAR-8 ovarian) of the same compound?
**A.** > 52.2 µM

**Q.** And the GI50 (786-0 renal)?
**A.** 0.445 µM

**Q.** And the TGI (786-0 renal)?
**A.** > 100 µM

**Q.** And the GI50 (RXF 393 renal)?
**A.** 0.0147 µM

**Q.** And the TGI (RXF 393 renal)?
**A.** 0.081 µM

**Q.** What about the GI50 (MDA-MB-231 breast) of the same compound?
**A.** 0.0256 µM

**Q.** What about the TGI (MDA-MB-231 breast) of the same compound?
**A.** 10.6 µM

**Q.** What about the GI50 (NCI-H460 lung) of the same compound?
**A.** > 100 µM

**Q.** And the TGI (NCI-H460 lung)?
**A.** > 100 µM

**Q.** And the GI50 (HS 578T breast)?
**A.** 0.0167 µM

**Q.** What about the TGI (HS 578T breast) of the same compound?
**A.** 0.13 µM

**Q.** What about the GI50 (UACC-257 melanoma) of the same compound?
**A.** > 100 µM

**Q.** And the TGI (UACC-257 melanoma)?
**A.** > 100 µM

**Q.** And the GI50 (OVCAR-3 ovarian)?
**A.** 0.275 µM

**Q.** And the TGI (OVCAR-3 ovarian)?
**A.** > 100 µM

**Q.** What about the GI50 (MCF7 breast) of the same compound?
**A.** > 100 µM

**Q.** And the TGI (MCF7 breast)?
**A.** > 100 µM

**Q.** And the GI50 (TK-10 renal)?
**A.** 0.517 µM

**Q.** What about the TGI (TK-10 renal) of the same compound?
**A.** 4.12 µM

**Q.** And the GI50 (SF-295 CNS)?
**A.** 6.78 µM

**Q.** And the TGI (SF-295 CNS)?
**A.** > 100 µM
